# Columns and labels:
# Bhas42 cells = assay: Carcinogenicity prediction test (transformation test based on OECD GD231); type: cell-based; conditions: in vitro
# Protocol: Using the aldehyde compositions obtained in Examples and Lilial (3-(p-tert-butylphenyl)-2-methylpropanal), a transformation test (an in vitro carcinogenicity prediction test using Bhas42 cells) was performed based on OECD GD231 to determine whether the carcinogenicity was negative or positive. When the result of this test is negative, it is predicted that there is no possibility of causing carcinogenicity, and safety is high.
# [1] = Evaluation of threshold of smell; conditions: diluted with dipropylene glycol; lower limit concentration at which smell can be distinguished
# Protocol: A filter paper having a width of 8 mm and a length of 15 cm was impregnated with each diluent and a lower limit concentration at which smell can be distinguished by a method in which a specialized panelist sniffs was evaluated. As the lower limit concentration is lower, the threshold of smell is lower, and the intensity and diffusibility of the aroma are more excellent.
structure (smiles),measurement,setting,value
"CC(C=O)Cc1ccc(C(C)(C)C)cc1 (centres unmarked) [Comparative Example 5, 3-(p-tert-butylphenyl)-2-methylpropanal]",Carcinogenicity prediction test,Bhas42 cells,Positive
same,Threshold of smell,[1],1 ppm

# From patent US20240391859A1, “ALDEHYDE COMPOSITION” (MITSUBISHI GAS CHEMICAL COMPANY, INC., priority 2021, published 2024)
